The values below come from article PMC11784652, “Two complementing in vivo selection systems based on CCA-trimming exonucleases as a tool to monitor, select and evaluate enzymatic features of tRNA nucleotidyltransferases” (RNA Biology, 2025).

Positions count from the first letter of the chain named.

Assay [1] has as its target T1, HsaCCA (human CCA-adding enzyme, tRNA nucleotidyltransferase) (Homo sapiens, UniProt Q96Q11).
T1 construct: gene TRNT1; N-terminal His-tag, pET28a(+), expressed in E. coli BL21(DE3) delta-cca
T1 sequence (Q96Q11 30-434): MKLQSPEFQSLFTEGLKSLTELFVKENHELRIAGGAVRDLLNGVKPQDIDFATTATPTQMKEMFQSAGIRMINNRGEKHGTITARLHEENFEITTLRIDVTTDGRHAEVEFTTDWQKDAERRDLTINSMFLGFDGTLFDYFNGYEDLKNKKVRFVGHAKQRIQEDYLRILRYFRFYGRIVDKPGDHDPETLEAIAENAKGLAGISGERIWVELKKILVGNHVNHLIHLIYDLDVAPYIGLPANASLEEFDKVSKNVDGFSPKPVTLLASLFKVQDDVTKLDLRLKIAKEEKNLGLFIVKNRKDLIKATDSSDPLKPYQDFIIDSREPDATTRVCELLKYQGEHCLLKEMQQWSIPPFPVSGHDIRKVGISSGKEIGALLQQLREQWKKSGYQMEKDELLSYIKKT
As to the kind of experiment: in vitro nucleotide incorporation on […]-labelled yeast tRNA-Phe-CC. The class given is biochemical. To be noted: 1 mM ATP, A-addition, co-substrate tRNA-Phe-CC, 37 °C; no binding to apoenzyme detected by DRaCALA.

The target in assay [2] is T1, HsaCCA (human CCA-adding enzyme, tRNA nucleotidyltransferase). As to the kind of experiment: DRaCALA (nitrocellulose radioligand spot assay). To be noted: 4 °C, 10 min, HEPES/KOH pH 7.6, 30 mM KCl, 6 mM MgCl2, no tRNA; 1 nM labelled compound (α-32P). The class given is binding.
Assay [3] concerns the target T2, HsaCCA (human CCA-adding enzyme, tRNA nucleotidyltransferase) (Homo sapiens, UniProt Q96Q11, E193G).
T2 construct: gene TRNT1; N-terminal His-tag, pET28a(+), expressed in E. coli BL21(DE3) delta-cca
T2 sequence (Q96Q11 30-434 E193G): T1 sequence (Q96Q11 30-434) with E164G
As to the kind of experiment: DRaCALA (nitrocellulose radioligand spot assay). It counts as binding. As to conditions: 4 °C, 10 min, HEPES/KOH pH 7.6, 30 mM KCl, 6 mM MgCl2, no tRNA; 1 nM labelled compound (α-32P).

For `Nc1ncnc2c1ncn2[C@@H]1O[C@H](COP(=O)(O)OP(=O)(O)OP(=O)(O)O)[C@@H](O)[C@H]1O` [ATP], in assay [1], the “in vitro nucleotide incorporation on 32P-labelled yeast tRNA-Phe-CC” value is on record as “Both enzyme versions readily add the terminal A if NTPs (N) or only ATP”.
Regarding `Nc1ccn([C@@H]2O[C@H](COP(=O)(O)OP(=O)(O)OP(=O)(O)O)[C@@H](O)[C@H]2O)c(=O)n1` [CTP], the “DRaCALA (nitrocellulose radioligand spot assay)” value in assay [2] is “Both HsaCCA wt and HsaCCA E164G showed robust interaction with CTP”; in assay [3], “CTP binding of HsaCCA E164G seems to be less efficient compared to the wt enzyme”.
